According to patent US20100016441A1, “BIOCIDAL COMPOSITION AND METHOD” (priority 2008, published 2010):

What was measured:
[1] = tested on: pool of microorganisms; assay: Rapid decontamination and long term preservation challenge test in UCAR Latex 626 (pH 8.7); type: cell-based; conditions: for active concentration, used alone, achieving 4 log10 reduction in bacterial concentration: UCAR Latex 626, pH 8.7, 1 h after initial inoculum; for concentration, used alone, achieving decontamination: 24 h after second inoculation at seven days
Protocol: (§1) The antimicrobial profiles of DBNPA, BNPD, and a combination of DBNPA-BNPD (3:1 w/w) are tested in a commercial water-based latex (UCAR Latex 626 available from The Dow Chemical Company), and a generic mineral slurry sample. Commercial latexes vary in pH values from slightly acidic to basic. For the purpose of this study, a latex with a basic pH (8.7) is selected, as it is known that both BNPD and DBNPA have limited chemical stability at alkaline pH. Mineral slurries vary in pH, but most often they are alkaline. For the purpose of this study, a titanium dioxide slurry with pH of 8.35 was selected.
(§2) Both the latex and the mineral slurry are free of contamination prior to testing. At time zero, the test matrices are inoculated with a pool of microorganisms (listed below) to a final concentration of 5×10^6 CFU/ml. Aliquots of the contaminated samples are weighed into a series of sterile containers followed by addition of the appropriate volume of biocide required to achieve the desired concentration. A control sample, lacking biocide, is included in each evaluation. Following biocide addition, samples are thoroughly mixed and aliquots are removed and streaked to tryptic soy agar plates, at various time points, for the enumeration of surviving microorganisms. All agar plates are incubated at 30° C. for 72 hours prior to assessment of viable bacteria. In all the ensuing results, a minimum of 4 log10 reduction in microorganism concentration, as compared to the control sample, is considered significant efficacy.
(§3) Microorganisms: Twenty-four hour tryptic soy broth cultures are combined in equal parts for formulation inoculation at a final concentration of 5×10^6 CFU/ml. Organisms utilized: Pseudomonas aeruginosa (ATCC#15442), Pseudomonas aeruginosa (ATCC#10145), Staphylococcus aureus (ATCC#6538), Burkholderia cepacia (ATCC#25416), Pseudomonas fluorescens B (environmental isolate), Pseudomonas oleovorans (environmental isolate), Enterococcus sulfureus (environmental isolate). To assess the rapid decontamination efficacy of the biocides, aliquots are removed at 60 minutes following the initial inoculation, and streaked on tryptic soy agar plates for the enumeration of surviving microorganisms. The samples are stored at ambient conditions for three or seven days, respectively, at which point a second inoculation is administered, to test the long term preservation efficacy of the biocides. Aliquots are removed at 4 h and/or 24 h or 48 h following the second inoculation, and streaked on tryptic soy agar plates, for the enumeration of surviving microorganisms.
(§4) Synergy: The synergy indexes reported here are measured and calculated using Formula 1. In this approach, a synergy index (SI) of 1 indicates additivity. If the synergy index is less than 1, synergy has occurred, while a synergy index greater than 1 indicates antagonism.
(§5) Synergy Index=CA/Ca+CB/Cb (1)
Ca=concentration of antimicrobial A, alone, producing a predetermined end-point
Cb=concentration of antimicrobial B, alone, producing a predetermined end-point
CA and CB=the concentrations of antimicrobials A and B, respectively, together in a mixture, that produce a predetermined end-point

[2] = tested on: pool of microorganisms; assay: Rapid decontamination and long term preservation challenge test in titanium dioxide mineral slurry (pH 8.35); type: cell-based; conditions: for concentration, used alone, obtaining 4 log10 reduction in microorganisms: 48 hours after second inoculation at seven days; for effective concentration, used alone (4 log10 reduction): pH 8.35, 30 min after initial inoculation
Protocol: as §1, §2
as §3, with “To assess the rapid decontamination efficacy of the biocides, aliquots are removed at 60 minutes following the initial inoculation, and streaked on tryptic soy agar plates for the enumeration of surviving microorganisms.” left out
as §4, §5
Ca=concentration of antimicrobial A, alone, producing a predetermined end-point […]

[3] = going from pH 6 to pH 8.9; cited from earlier work

O=[N+]([O-])C(Br)(CO)CO [BNPD, 2-bromo-2-nitro-1,3-propanediol]
active concentration, used alone, achieving 4 log10 reduction in bacterial concentration [1]: > 600 ppm
concentration, used alone, achieving decontamination ([1]; UCAR Latex 626): 95.7 ppm
effective active concentration (4 log10 reduction) ([1]; UCAR Latex 626, 24 h after second inoculation at three days): 95.7 ppm
concentration, used alone, obtaining 4 log10 reduction in microorganisms [2]: 35.1 ppm
effective concentration, used alone (4 log10 reduction) [2]: > 600 ppm

N#CC(Br)(Br)C(N)=O [DBNPA, 2,2-dibromo-3-nitrilopropionamide]
active concentration, used alone, achieving 4 log10 reduction in bacterial concentration [1]: 140 ppm
concentration, used alone, achieving decontamination ([1]; UCAR Latex 626): did not achieve decontamination
concentration, used alone, obtaining 4 log10 reduction in microorganisms [2]: 400 ppm
effective concentration, used alone (4 log10 reduction) [2]: 23.4 ppm
factor of increase of rate of disappearance [3]: about 450
